Assay results: US12378277B2, “SGLTS/DPP4 inhibitor and application thereof” (DONGBAO PURPLE STAR (HANGZHOU) BIOPHARMACEUTICAL CO., LTD., priority 2019, dated 2025)
Marks after values point to notes of the source that are not given here.

Experiments:
SD rat = assay: Rat oral glucose tolerance test (OGTT) in vivo; details: 10 mg/kg single gavage
Procedure: 1. Animal: [table] 2. Experiment Grouping: [table] Experiment Process: 1. Animal Adaptation and Preparation: The experimental animals needed to be acclimatized in the animal room for 1 week after arriving at the facility. 2. Fasting and Administration The animals were fasted for 18 h in the metabolic cage, and drugs or solvents (2 mL/kg) were given according to the above table, and then 50% glucose solution (2 g/kg, 4 mL/kg) was administrated immediately. 3. Urine and Blood Sugar Test Two hours after the animals were given sugar, they resumed eating. The time points of 0 min, 15 min, 30 min, 45 min, 60 min and 120 min were collected for blood glucose determination; urine during 0-24 h was used for urine sugar (mg/200 g) and urine volume test respectively. 4. Data Analysis: All values will be expressed as average values. Statistical analysis was evaluated using Graphpad Prism 6 one-way analysis of variance Tukey's multiple comparison test. P value of less than 0.05 was considered of statistically significant.

Human-SGLT1 = Human-SGLT1 (Homo sapiens (Human), UniProt P13866); assay: SGLT1 glucose transport test; type: cell-based; details: cells stably expressing Human-SGLT1; [14C]-labeled methyl α-D-glucopyranoside uptake, 37° C., 2 hours
Procedure: • Biological activity experiment 1: SGLT1 glucose transport test 1. Experimental Purpose:
The effect of the compound on the glucose transport activity of the SGLT1 transporter was detected through measuring the amount of [^14C]-labeled glucose entering the cells with high expression of Human-SGLT1.
The cells stably expressing Human-SGLT1 used in the experiment were constructed by Shanghai WuXi AppTec. The SGLT1 cells were plated on a Cytostar-T (PerkinElmer) 96-well cell culture plate, and cultured overnight at 5% CO2 at 37° C.
2.2. SGLT1 Glucose Transport Test
1) Experimental buffer: 10 mM 4-hydroxyethylpiperazine ethanesulfonic acid (HEPES), 1.2 mM magnesium chloride (MgCl2), 4.7 mM potassium chloride (KCl), 2.2 mM calcium chloride (CaCl2) and 120 mM sodium chloride (NaCl).
2) The compound was diluted with 100% dimethyl sulfoxide (DMSO) with 1 mM as the starting concentration and 8 points of 5-fold serial dilutions.
3) 3 μM [^14C]-labeled methyl α-D-glucopyranoside was prepared with experimental buffer.
4) The cells were treated with 49 μL of experimental buffer, 1 μL of the compound which was gradient diluted, and 50 μL of 3 μM [^14C] isotope-labeled sugar solution at 37° C. for 2 hours.
5) The isotope detector (Micro beta Reader) was used to read.
6) The data was calculated by GraphPad Prism 5.0 software: log(inhibitor) vs. response—Variable slope to obtain the IC50 value of the test compound. The experimental results were shown in Table 3. • Biological activity experiment 2: SGLT2 glucose transport test 1.

[1] = target: recombinant human dipeptidyl peptidase 4 (rhDPP4) (Homo sapiens (Human), UniProt P27487); assay: rhDPP4 inhibitor screening experiment; type: biochemical; details: Gly-Pro-aminoluciferin substrate, luminescence, room temperature 1 hour
Procedure: 9) The data was calculated by GraphPad Prism 5.0 software: log(inhibitor) vs. response—Variable slope to obtain the IC50 value of the test compound. The experimental results were shown in Table 3. • Biological activity experiment 3: rhDPP4 inhibitor screening experiment 1. Experimental Purpose:
The inhibitory activity of the compounds on recombinant human dipeptidyl peptidase 4 (rhDPP4) was evaluated by measuring the median inhibitory concentration (IC50) value of the compounds. In this experiment, rhDPP4 was used to catalyze a substrate to produce luciferin, and reacted with luciferase to produce light signals, wherein the substrate is the luminescent precursor glycine-proline-[…] (Gly-Pro-aminoluciferin). The intensity of the light signal is directly proportional to the enzyme activity.
1) 250 nL of gradient diluted compound (4 times dilution, 10 detection concentrations) was transferred to a 384-well plate (PerkingElmer-6007299) using a non-contact nano-upgraded acoustic pipetting system (ECHO). The concentration of dimethylsulfoxide (DMSO) concentration was 0.5% in the final reaction system. Blank control wells (containing DMSO, substrate and 10 mM of tris(hydroxymethyl)aminomethane hydrochlorid (Tris-HCl)) and positive control wells (containing DMSO, substrate and rhDPP4) were set.
2) The pre-packed frozen buffer containing luciferase was taken out and restored to room temperature, and then added with substrate to prepare a working solution with a substrate concentration of 20 μM. The rhDPP4 was prepared as a 0.2 ng/mL working solution with 10 mM Tris-HCl (pH8.0) aqueous solution.
3) 25 μL of working solution containing 20 μM substrate and 25 μL of working solution containing 0.2 ng/mL rhDPP4 were added to the 384-well plate with the compound added already. The plate was centrifuged at 1000 rpm for 30 s. The plate was sealed with aluminum foil sealing film and incubated at room temperature for 1 hour.
4) The light signal intensity was detected with a multi-function enzyme label detector EnVision. […]

Human-SGLT2 = Human-SGLT2 (Homo sapiens (Human), UniProt P31639); assay: SGLT2 glucose transport test; type: cell-based; details: cells stably expressing Human-SGLT2; [14C]-labeled methyl α-D-glucopyranoside uptake, 37° C., 2 hours
Procedure: 6) The data was calculated by GraphPad Prism 5.0 software: log(inhibitor) vs. response—Variable slope to obtain the IC50 value of the test compound. The experimental results were shown in Table 3. • Biological activity experiment 2: SGLT2 glucose transport test 1. Experimental Purpose:
The effect of the compound on the glucose transport activity of the SGLT2 transporter was detected through measuring the amount of [^14C]-labeled glucose entering the cells with high expression of Human-SGLT2.
The cells stably expressing Human-SGLT2 used in the experiment were constructed by Shanghai WuXi AppTec. The SGLT2 cells were plated on a 96-well cell culture plate (Greiner) and cultured overnight at 5% CO2 at 37° C.
2.2. SGLT2 Glucose Transport Test
1) Experimental buffer: 10 mM 4-hydroxyethylpiperazine ethanesulfonic acid (HEPES), 1.2 mM magnesium chloride (MgCl2), 4.7 mM potassium chloride (KCl), 2.2 mM calcium chloride (CaCl2)) and 120 mM sodium chloride (NaCl).
2) Termination buffer: 10 mM 4-hydroxyethylpiperazine ethanesulfonic acid (HEPES), 1.2 mM magnesium chloride (MgCl2), 4.7 mM potassium chloride (KCl), 2.2 mM calcium chloride (CaCl2), 120 mM sodium chloride (NaCl) and 1 μM LX4211.
3) The compound was diluted with 100% dimethyl sulfoxide (DMSO) with a starting concentration of 10 μM and 8 points of 5-fold serial dilution.
4) 6 μM [^14C]-labeled methyl α-D-glucopyranoside was prepared with experimental buffer.
5) The cells were treated with 49 μL of experimental buffer, 1 μL of gradient diluted compound, and 50 μL of 6 μM [^14C]isotope-labeled sugar solution at 37° C. for 2 hours.
6) The liquid in the well was aspirated and the cells were rinsed 3 times with termination buffer.
7) The cells were lysed with 50 μL of 10% sodium hydroxide solution, the cell lysate was aspirated into the scintillation tube, and 2 mL of scintillation fluid was added.
8) An isotope detector (Tricarb) was used to read.
9) The data was calculated by GraphPad Prism 5.0 software: log(inhibitor) vs. response—Variable slope to obtain the IC50 value of the test compound. The experimental results were shown in Table 3. • Biological activity experiment 3: rhDPP4 inhibitor screening experiment 1.

Sequence of Human-SGLT2 (P31639 whole entry): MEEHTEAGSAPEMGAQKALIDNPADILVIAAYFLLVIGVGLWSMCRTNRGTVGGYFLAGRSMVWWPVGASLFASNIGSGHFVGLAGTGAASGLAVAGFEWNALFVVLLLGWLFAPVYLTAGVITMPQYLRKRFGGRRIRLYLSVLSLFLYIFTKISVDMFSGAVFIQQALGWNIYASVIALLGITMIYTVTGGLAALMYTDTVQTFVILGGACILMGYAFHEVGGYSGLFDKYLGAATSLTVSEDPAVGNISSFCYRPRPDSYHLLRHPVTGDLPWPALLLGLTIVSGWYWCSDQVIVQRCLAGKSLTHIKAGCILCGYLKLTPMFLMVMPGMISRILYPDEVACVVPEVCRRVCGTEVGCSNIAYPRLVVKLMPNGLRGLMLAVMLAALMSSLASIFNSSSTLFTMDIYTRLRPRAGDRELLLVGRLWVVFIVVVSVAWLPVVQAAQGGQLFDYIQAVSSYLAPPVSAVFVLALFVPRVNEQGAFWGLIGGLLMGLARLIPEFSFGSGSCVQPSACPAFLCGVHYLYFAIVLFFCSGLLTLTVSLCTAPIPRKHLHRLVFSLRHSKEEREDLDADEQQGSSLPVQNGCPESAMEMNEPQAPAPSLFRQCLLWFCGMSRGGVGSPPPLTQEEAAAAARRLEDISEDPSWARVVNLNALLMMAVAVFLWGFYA
Sequence of Human-SGLT1 (P13866 whole entry): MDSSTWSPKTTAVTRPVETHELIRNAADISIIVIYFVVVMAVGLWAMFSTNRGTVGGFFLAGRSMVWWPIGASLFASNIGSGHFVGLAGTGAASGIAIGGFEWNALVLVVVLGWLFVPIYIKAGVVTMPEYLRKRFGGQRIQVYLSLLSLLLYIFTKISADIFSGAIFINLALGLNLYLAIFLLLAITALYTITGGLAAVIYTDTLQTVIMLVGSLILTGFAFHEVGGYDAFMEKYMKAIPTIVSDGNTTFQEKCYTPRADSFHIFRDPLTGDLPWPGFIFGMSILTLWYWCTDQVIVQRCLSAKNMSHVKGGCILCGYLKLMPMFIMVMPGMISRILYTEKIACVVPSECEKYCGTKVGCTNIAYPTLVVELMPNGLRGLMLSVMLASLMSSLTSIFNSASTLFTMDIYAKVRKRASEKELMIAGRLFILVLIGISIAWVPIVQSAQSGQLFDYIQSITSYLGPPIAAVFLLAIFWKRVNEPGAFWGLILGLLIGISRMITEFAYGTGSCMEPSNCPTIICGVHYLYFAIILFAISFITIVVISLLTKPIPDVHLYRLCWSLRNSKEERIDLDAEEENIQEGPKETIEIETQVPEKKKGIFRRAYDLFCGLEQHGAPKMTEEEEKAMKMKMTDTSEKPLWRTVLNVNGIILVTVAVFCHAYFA
Sequence of recombinant human dipeptidyl peptidase 4 (rhDPP4) (P27487 whole entry): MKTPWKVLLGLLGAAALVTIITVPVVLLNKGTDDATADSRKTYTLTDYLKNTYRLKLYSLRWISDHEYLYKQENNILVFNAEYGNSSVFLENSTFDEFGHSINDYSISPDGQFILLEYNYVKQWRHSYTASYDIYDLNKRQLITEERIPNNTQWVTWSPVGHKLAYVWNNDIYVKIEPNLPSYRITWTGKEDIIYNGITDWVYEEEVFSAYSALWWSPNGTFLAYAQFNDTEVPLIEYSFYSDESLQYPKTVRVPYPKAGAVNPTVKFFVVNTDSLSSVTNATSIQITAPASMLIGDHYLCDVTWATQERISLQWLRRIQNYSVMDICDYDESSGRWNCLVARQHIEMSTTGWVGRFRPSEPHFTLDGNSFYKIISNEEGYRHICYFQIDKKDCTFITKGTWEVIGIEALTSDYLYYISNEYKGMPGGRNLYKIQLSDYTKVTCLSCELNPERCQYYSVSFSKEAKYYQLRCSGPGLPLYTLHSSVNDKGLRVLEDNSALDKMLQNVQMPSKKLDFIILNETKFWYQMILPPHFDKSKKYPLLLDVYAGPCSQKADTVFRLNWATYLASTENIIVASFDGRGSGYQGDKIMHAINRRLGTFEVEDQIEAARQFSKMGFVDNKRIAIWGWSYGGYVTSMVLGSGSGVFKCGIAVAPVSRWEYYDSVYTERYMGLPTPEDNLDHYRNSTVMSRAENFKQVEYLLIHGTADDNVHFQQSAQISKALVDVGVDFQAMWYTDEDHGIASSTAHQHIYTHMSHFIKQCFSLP

Row | Compound | OGTT glucose level AUC0-2 hr (SD rat; then 50% glucose solution 2 g/kg, solvent control group 1079) [mmol/L/min] | Urine sugar level (SD rat; urine during 0-24 h, solvent control group 0.4) | Urine volume (SD rat; urine during 0-24 h, solvent control group 16.8) | IC50 (Human-SGLT1) [nM] | IC50 [1] [nM] | IC50 (Human-SGLT2) [nM]
1 | CCOc1ccc(Cc2cc([C@@H]3O[C@H](SC)[C@@H](O)[C@H](O)[C@H]3O)ccc2Cl)cc1 [Soagliflozin, Sotagliflozin] | 917 | 2913**** mg/200 g BW | 32.2**** mL/200 g BW |  |  | 
2 | CCc1ccc([C@@H]2O[C@H](SC)[C@@H](O)[C@H](O)[C@H]2O)cc1Cc1ccc(OC2CCN(C3CO[C@H](c4cc(F)ccc4F)[C@@H](N)C3)CC2)cc1 (some centres unmarked) [WXD007] |  |  |  | 3.37 | 511 | 1.44
3 | CCc1ccc([C@@H]2O[C@H](SC)[C@@H](O)[C@H](O)[C@H]2O)cc1Cc1ccc(O[C@@H]2CCN([C@H]3CO[C@H](c4cc(F)ccc4F)[C@@H](N)C3)C2)c(C)c1 [WXD010] |  |  |  | 144 | 164 | 21.2
4 | CCc1ccc([C@@H]2O[C@H](SC)[C@@H](O)[C@H](O)[C@H]2O)cc1Cc1ccc(O[C@@H]2CCN([C@H]3CO[C@H](c4cc(F)ccc4F)[C@@H](N)C3)C2)c(C)c1 [WXD011] |  |  |  | 44.9 |  | 10.3
5 | CS[C@H]1O[C@@H](c2ccc(C(C)C)c(Cc3ccc(O[C@@H]4CCN([C@H]5CO[C@H](c6cc(F)ccc6F)[C@@H](N)C5)C4)cc3)c2)[C@H](O)[C@@H](O)[C@@H]1O [WXD012] |  |  |  | 11.2 | 317 | 6.14
